This is an account of results in article PMC7822176, “Pursuing the Complexity of Alzheimer’s Disease: Discovery of Fluoren-9-Amines as Selective Butyrylcholinesterase Inhibitors and N-Methyl-D-Aspartate Receptor Antagonists” (Biomolecules, 2020).

One series can be described thus: in vitro. To be noted: human. The protocol:
(§1) The D3 assay evaluates the ability of compounds to diffuse from the donor compartment through the D3/hCMEC cell membrane into the acceptor compartment. The D3 cells were seeded on a PET membrane (area 1.12 cm^2) with 3-µm pores of the 12-well plates with 12-mm inserts. […] The donor solution (750 µL) was added to the donor compartment (insert), and the same volume of Opti-MEM was added into the acceptor. The concentration of the drug in both compartments was measured by UV-VIS spectrophotometry in 5, 15, 30, and 60 min of incubation in triplicates. The apparent permeability coefficient (Papp) was calculated from the concentration ratios. Tightness of the D3 monolayer was conducted by the fluorescein isothiocyanate (FITC) test after each experiment. […] (1) Papp= dC/dt × Vr/A × C0 • A: area of the well/cell monolayer, • dC/dt: amount in the receiver compartment in given time, • Vr: volume of the receiver compartment, and • C0: the initial concentration of tested compounds.

For another series, the system named is hCMEC/D3 cell monolayer. The series is described as follows: in vitro. As for the experimental part: as §1
The target of the next series is T1, GluN1/GluN2A receptors (Homo sapiens, UniProt Q05586+Q12879).
T1 construct: expressed in transfected cells; host or cells: HEK293
T1 sequence (Q12879 23-1464, other chains not shown): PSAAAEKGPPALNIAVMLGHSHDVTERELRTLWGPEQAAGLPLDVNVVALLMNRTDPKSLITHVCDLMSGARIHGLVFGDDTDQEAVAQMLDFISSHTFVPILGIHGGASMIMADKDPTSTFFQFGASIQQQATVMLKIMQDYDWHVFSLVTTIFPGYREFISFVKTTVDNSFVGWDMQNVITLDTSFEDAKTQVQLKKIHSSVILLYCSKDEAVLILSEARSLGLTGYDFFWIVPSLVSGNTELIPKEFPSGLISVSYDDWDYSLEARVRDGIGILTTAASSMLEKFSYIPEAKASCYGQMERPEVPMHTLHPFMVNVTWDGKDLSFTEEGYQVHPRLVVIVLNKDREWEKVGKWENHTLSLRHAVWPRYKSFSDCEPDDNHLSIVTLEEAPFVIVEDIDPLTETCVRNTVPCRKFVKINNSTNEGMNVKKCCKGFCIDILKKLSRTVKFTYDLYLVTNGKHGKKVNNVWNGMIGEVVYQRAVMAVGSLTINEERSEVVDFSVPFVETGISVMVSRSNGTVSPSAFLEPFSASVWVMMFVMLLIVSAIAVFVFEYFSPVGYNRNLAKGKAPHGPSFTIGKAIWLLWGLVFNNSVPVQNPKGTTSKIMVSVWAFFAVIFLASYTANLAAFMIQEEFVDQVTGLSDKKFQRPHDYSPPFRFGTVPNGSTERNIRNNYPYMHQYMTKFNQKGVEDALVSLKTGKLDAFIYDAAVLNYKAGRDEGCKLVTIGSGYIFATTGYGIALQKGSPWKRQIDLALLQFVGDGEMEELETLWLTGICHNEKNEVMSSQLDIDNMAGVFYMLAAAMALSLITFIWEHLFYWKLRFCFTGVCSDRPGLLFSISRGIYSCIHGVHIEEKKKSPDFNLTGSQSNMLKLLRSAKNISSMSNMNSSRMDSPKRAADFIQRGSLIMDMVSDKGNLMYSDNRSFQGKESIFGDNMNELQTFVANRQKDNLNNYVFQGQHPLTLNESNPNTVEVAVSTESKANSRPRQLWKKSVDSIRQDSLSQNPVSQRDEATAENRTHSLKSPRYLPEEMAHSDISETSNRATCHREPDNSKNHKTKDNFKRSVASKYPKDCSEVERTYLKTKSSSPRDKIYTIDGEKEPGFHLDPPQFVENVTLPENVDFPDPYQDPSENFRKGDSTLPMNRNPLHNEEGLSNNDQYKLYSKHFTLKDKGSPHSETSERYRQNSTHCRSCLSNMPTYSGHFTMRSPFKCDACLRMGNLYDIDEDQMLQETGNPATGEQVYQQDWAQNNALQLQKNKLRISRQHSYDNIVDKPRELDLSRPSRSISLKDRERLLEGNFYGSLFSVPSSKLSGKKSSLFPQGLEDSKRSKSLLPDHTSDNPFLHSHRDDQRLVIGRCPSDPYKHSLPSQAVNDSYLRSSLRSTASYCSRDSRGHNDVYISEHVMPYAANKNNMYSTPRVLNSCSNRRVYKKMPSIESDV
In words: cell-based. To be noted: for inhibition at 10 µM: HEK293, read-out: RI (%) ± SEM GluN1/GluN2A. The protocol:
(§2) The cells grown in a 24-well plate were put in Opti-MEM I media containing a mixture of 0.9 µL of MATra-A Reagent (IBA) and 900 ng of DNA vectors carrying the human versions of the GluN1-1a (GluN1), GluN2A, or GluN2B subunits and green fluorescent protein (GFP; all vectors were added in equal ratio). The cells were placed on a strong magnet plate for 30 min and then trypsinized; resuspended in Opti-MEM I containing 1% FBS, 20-mM MgCl2, and 3-mM kynurenic acid (to inhibit the NMDAR-induced excitotoxicity); and plated on poly-L-lysine-coated glass coverslips. The electrophysiological experiments were executed 24–48 h after transfection.
(§3) Whole-cell patch-clamp recordings were conducted at room temperature on the GFP-positive HEK293 cells using an Axopatch 200B amplifier (Molecular Devices, San Jose, CA, USA); the series resistance compensation was >80% for all cells. […] The WAS02 application system, which can reach the solution exchange time around the recorded cell of 10–20 ms, was used to apply the extracellular solution (ECS).

Another series deals with T2, GluN1/GluN2B receptors (Homo sapiens, UniProt Q05586+Q13224).
T2 construct: expressed in transfected cells; host or cells: HEK293
T2 sequence (Q13224 27-1484, other chains not shown): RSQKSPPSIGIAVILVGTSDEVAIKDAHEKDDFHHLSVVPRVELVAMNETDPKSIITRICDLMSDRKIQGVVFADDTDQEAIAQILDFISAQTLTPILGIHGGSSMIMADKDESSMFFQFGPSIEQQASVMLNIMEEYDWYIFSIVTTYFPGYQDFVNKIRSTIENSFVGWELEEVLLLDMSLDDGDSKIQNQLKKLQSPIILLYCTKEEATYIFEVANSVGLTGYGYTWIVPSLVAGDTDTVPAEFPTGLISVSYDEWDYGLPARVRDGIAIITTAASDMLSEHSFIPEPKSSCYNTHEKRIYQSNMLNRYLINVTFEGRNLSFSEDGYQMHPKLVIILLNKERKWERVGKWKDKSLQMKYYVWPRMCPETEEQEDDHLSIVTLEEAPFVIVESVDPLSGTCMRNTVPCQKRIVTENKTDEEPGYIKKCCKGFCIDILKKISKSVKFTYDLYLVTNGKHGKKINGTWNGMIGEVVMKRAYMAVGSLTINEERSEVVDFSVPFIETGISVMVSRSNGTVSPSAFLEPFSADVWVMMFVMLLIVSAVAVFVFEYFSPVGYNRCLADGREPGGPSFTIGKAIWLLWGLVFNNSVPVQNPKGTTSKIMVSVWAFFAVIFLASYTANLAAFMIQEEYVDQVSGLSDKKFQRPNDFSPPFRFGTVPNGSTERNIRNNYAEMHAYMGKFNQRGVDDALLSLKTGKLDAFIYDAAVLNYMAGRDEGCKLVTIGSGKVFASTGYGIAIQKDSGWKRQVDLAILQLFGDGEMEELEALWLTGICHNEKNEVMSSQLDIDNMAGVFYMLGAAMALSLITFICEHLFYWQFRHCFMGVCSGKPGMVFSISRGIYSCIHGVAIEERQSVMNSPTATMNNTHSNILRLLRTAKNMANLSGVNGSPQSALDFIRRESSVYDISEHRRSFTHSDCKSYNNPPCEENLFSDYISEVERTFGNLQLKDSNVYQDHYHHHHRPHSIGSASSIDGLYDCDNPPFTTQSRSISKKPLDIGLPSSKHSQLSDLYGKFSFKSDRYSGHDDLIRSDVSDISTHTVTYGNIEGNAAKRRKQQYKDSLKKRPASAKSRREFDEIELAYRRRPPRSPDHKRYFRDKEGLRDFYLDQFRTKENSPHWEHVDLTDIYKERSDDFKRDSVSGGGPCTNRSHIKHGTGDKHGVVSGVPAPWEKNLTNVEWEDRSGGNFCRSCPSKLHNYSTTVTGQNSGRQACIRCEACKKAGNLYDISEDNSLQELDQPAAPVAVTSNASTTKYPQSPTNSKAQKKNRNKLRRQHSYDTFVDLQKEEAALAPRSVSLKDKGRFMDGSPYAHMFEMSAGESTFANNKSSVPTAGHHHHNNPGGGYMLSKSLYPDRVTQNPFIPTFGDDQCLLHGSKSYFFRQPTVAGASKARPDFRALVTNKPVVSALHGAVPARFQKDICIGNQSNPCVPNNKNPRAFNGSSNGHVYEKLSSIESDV
In words: cell-based. The following applies: for inhibition at 10 µM: HEK293, read-out: RI (%) ± SEM GluN1/GluN2B. The protocol: as §2, §3

Series [1] is described as follows: MTT cell viability assay, CHO-K1. The series is classed as cell-based. The following applies: Chinese hamster, CHO-K1 cells, 24 h exposure, mean of three independent measurements, read-out: IC50 ± SEM CHO-K1 cell viability. The protocol:
(§4) Standard MTT assay (3-(4,5-dimethylthiazol-2-yl)-2,5-diphenyltetrazolium bromide; Sigma Aldrich, Prague, Czech Republic) was used according to the manufacturer’s protocols on the CHO-K1 (Chinese hamster ovary, ECACC, Salisbury, UK) and hCMEC/D3 (Sigma Aldrich, St. Louis, MO, USA). The cells were cultured according to recommended conditions and seeded in a density of 8000 cells per well, as described previously. […] CHO-K1 cells were exposed to serially diluted tested compounds for 24 h. Then, the medium was replaced by a fresh medium containing 0.5 mg/mL of MTT, and the cells were allowed to produce formazan for another approximately 3 h under surveillance. Thereafter, the medium with MTT was removed, and crystals of formazan were dissolved in DMSO (100 µL/well; PENTA s.r.o., Prague, Czech Republic). Cell viability was assessed spectrophotometrically by the amount of formazan produced. The absorbance was measured at 570 nm with a 650-nm reference wavelength on Synergy HT (BioTek, Winooski, VT, USA). The IC50 value (half-maximal inhibitory concentration) was calculated from the control-subtracted triplicates using nonlinear regression (four parameters) by GraphPad Prism 7.03 software (GraphPad Software Inc., San Diego, CA, USA) for the CHO-K1 cell line, and for hCMEC/D3 cells, the cell viability was expressed as the % relative to the untreated control. Final IC50 and SEM (standard error of the mean) values were obtained as a mean of three independent measurements.

In the next series the target is T3, hBChE (Homo sapiens, UniProt P06276).
T3 construct: made in house
T3 sequence (P06276 29-602): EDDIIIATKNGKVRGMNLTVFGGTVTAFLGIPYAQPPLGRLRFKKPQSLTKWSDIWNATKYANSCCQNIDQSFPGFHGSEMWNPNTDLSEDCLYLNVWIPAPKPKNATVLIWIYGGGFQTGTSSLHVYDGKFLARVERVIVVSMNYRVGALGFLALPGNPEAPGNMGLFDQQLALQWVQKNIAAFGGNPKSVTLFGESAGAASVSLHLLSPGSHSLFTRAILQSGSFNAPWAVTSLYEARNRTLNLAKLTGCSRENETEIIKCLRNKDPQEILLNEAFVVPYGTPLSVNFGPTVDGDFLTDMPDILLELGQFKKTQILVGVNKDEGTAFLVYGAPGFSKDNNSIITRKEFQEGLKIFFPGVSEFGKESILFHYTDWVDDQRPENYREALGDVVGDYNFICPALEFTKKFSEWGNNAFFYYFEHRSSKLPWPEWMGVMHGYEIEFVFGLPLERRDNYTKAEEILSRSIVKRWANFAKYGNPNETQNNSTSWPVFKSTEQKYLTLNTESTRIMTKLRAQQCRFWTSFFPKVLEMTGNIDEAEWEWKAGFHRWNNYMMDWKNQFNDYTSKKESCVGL
In words: biochemical. The class given is biochemical. As for the experimental part: The human recombinant BChE and AChE were prepared at the Department of Toxicology and Military Pharmacy (Faculty of Military Health Sciences, Hradec Kralove, Czech Republic). 5,5′-dithiobis(2-nitrobenzoic acid) (Ellman’s reagent, DTNB), phosphate buffer (PB, pH 7.4), acetylthiocholine (ATC), and butyrylthiocholine (BTC) were purchased from Sigma-Aldrich, Prague, Czech Republic. For measuring purposes, polystyrene Nunc 96-well microplates with a flat bottom shape (Thermo Fisher Scientific, Waltham, MA, USA) were utilized. All the assays were carried out in 0.1-M KH2PO4/K2HPO4 buffer, pH 7.4. Enzyme solutions were prepared at 2.0 units/mL in 2-mL aliquots. […] Tested compounds were preincubated for 5 min. The reaction was started by the immediate addition of 20 µL of the substrate. […] Each concentration was assayed in triplicate. Software GraphPad Prism 5 (San Diego, CA, USA) was used for the statistical data evaluation.

The nature of series [2]: MTT cell viability test, hCMEC/D3. The series is classed as cell-based. The following applies: human, hCMEC/D3 cells, read-out: % viable cells hCMEC/D3. As for the experimental part: as §4, with “The IC50 value (half-maximal inhibitory concentration) was calculated from the control-subtracted triplicates using nonlinear regression (four parameters) by GraphPad Prism 7.03 software (GraphPad Software Inc., San Diego, CA, USA) for the CHO-K1 cell line, and for hCMEC/D3 cells, the cell viability was expressed as the % relative to the untreated control.” left out

[3] abbreviates: final prediction from Papp correlated to reference drugs.
Where [4] appears, read: mean of at least three experiments, read-out: IC50 ± SEM hBChE.

Counter-ions that a name gives are not always drawn. Like-named read-outs stand apart in the source and are kept apart here.

Compound `Cc1cc(=O)n(-c2ccccc2)n1C` [Antipyrine, reference compound] returned an apparent permeability (Papp) in the series “in vitro” of 17.2 ± 1.82 ×10⁻⁶ cm/s. The “CNS (+/−)” value in the series with hCMEC/D3 cell monolayer (setting [3]) is listed as “CNS +”.

Consider `CC(C)NC1c2ccccc2-c2ccccc21` [Compound 3a, N-Propan-2-yl-9H-fluoren-9-amine hydrochloride], for which the inhibition at 10 µM at GluN1/GluN2A receptors is 33.3 ± 1.66%; at GluN1/GluN2B receptors, 25 ± 1.82%. Also, the half-inhibitory concentration (IC50) at 24 h in series [1] worked out at 387 ± 32 µM.

Regarding `CNC1c2ccccc2-c2ccccc21` [Compound 3b, N-Methyl-9H-fluoren-9-amine hydrochloride], the concentration for half-maximal inhibition (IC50) on hBChE (setting [4]) was 8.91 ± 0.31 µM. For the same compound, the inhibition at 10 µM was 36.2 ± 2.16% on GluN1/GluN2A receptors and 18 ± 0.78% on GluN1/GluN2B receptors. Moreover, in series [1], the concentration for half-maximal inhibition (IC50) at 24 h came to 427 ± 12 µM.

On to `c1ccc2c(c1)-c1ccccc1C2NC1CC1` [Compound 3d, N-Cyclopropyl-9H-fluoren-9-amine hydrochloride], for which, on hBChE (setting [4]), the half-maximal inhibitory concentration (IC50) amounted to 6.42 ± 0.22 µM. Besides, the inhibition at 10 µM was 26.6 ± 0.85% on GluN1/GluN2A receptors and 14.3 ± 0.35% at GluN1/GluN2B receptors. The 50% inhibitory concentration (IC50) at 24 h in series [1] came to 353 ± 32 µM.

Turning to `c1ccc2c(c1)-c1ccccc1C2N1CCCCC1` [Compound 3f, 1-(9H-fluoren-9-yl)piperidine hydrochloride], the IC50 at hBChE (setting [4]) was 2.13 ± 0.06 µM. The figures for the inhibition at 10 µM on GluN1/GluN2A receptors and on GluN1/GluN2B receptors were 33 ± 1.96% and 19.4 ± 2.65%, respectively. The IC50 at 24 h in series [1] was determined as 872 ± 10 µM.

For the compound `COCCNC1c2ccccc2-c2ccccc21` [Compound 3g, N-(2-methoxyethyl)-9H-fluoren-9-amine hydrochloride], the IC50 on hBChE (setting [4]) stood at 2.56 ± 0.11 µM. Besides, the inhibition at 10 µM on GluN1/GluN2A receptors stood at 18.7 ± 1.98%; on GluN1/GluN2B receptors, 6.76 ± 1%. For the same compound, the IC50 at 24 h in series [1] came to 738 ± 1 µM.

With `CCNC1c2ccccc2-c2ccccc21` [Compound 3h, N-Ethyl-9H-fluoren-9-amine hydrochloride], the 50% inhibitory concentration (IC50) at hBChE (setting [4]) was found to be 6.58 ± 0.19 µM. Further, the results for the inhibition at 10 µM at GluN1/GluN2A receptors and at GluN1/GluN2B receptors were 26.9 ± 2.14% and 17.5 ± 2.46%, respectively. The IC50 at 24 h in series [1] is 417 ± 16 µM.

Turning to `CCN(CC)C1c2ccccc2-c2ccccc21` [Compound 3i, N,N-Diethyl-9H-fluoren-9-amine hydrochloride], at hBChE (setting [4]), the IC50 was 5.38 ± 0.11 µM. Also, the figures for the inhibition at 10 µM on GluN1/GluN2A receptors and on GluN1/GluN2B receptors were 25.7 ± 1.92% and 20.1 ± 2.82%, respectively. In addition, in series [1], the 50% inhibitory concentration (IC50) at 24 h came to 266 ± 3 µM.

Compound `CN1CCN(C2c3ccccc3-c3ccccc32)CC1` [Compound 3j, 1-(9H-fluorene-9-yl)-4-methylpiperazine dihydrochloride] yielded a 50% inhibitory concentration (IC50) against hBChE of 23.5 ± 0.8 µM. Further, the inhibition at 10 µM on GluN1/GluN2A receptors came out at 29.1 ± 2.85%; at GluN1/GluN2B receptors it was 21.9 ± 2.1%. Further, in series [1], the IC50 at 24 h amounted to 259 ± 12 µM.

Consider `CCN1CCN(C2c3ccccc3-c3ccccc32)CC1` [Compound 3k, 1-(9H-fluorene-9-yl)-4-ethylpiperazine dihydrochloride], for which the 50% inhibitory concentration (IC50) on hBChE (setting [4]) amounted to 12.8 ± 0.3 µM. Moreover, the results for the inhibition at 10 µM on GluN1/GluN2A receptors and at GluN1/GluN2B receptors were 32.1 ± 1.01% and 19.1 ± 1.48%, respectively. In addition, the half-inhibitory concentration (IC50) at 24 h in series [1] came to 239 ± 35 µM.

For the compound `c1ccc2c(c1)-c1ccccc1C2N1CCOCC1` [Compound 3l, 4-(9H-fluorene-9-yl)morpholine hydrochloride], the 50% inhibitory concentration (IC50) on hBChE (setting [4]) was found to be 54.7 ± 1.9 µM. In addition, the inhibition at 10 µM at GluN1/GluN2A receptors turned out to be 14.9 ± 1.76%; on GluN1/GluN2B receptors, 11.6 ± 0.52%. Further, the IC50 at 24 h in series [1] was more than 800 µM.

With `CC(C)CNC1c2ccccc2-c2ccccc21.Cl` [Compound 3n, N-(2-methylpropyl)-9H-fluoren-9-amine hydrochloride], the inhibition at 10 µM was determined as 37.9 ± 2.43% at GluN1/GluN2A receptors and 49.7 ± 1.72% on GluN1/GluN2B receptors. Moreover, the half-inhibitory concentration (IC50) at 24 h in series [1] stood at 236 ± 24 µM. Further, the viability at 50 µM in series [2] (50 µM) amounted to 98.2%. Further, the viability at 100 µM in series [2] (100 µM) stood at 92.7%. In addition, the Papp in “in vitro” is 14.6 ± 1.88 ×10⁻⁶ cm/s. The “potential of BBB permeation (in words)” value with hCMEC/D3 cell monolayer (Papp correlated to reference drugs) is “low potential to passively pass the BBB”. Besides, the “CNS (+/−)” value in the series on hCMEC/D3 cell monolayer (setting [3]) is “CNS −”.

On to `c1ccc2c(c1)-c1ccccc1C2N1CCCC1` [Compound 3o, 1-(9H-fluoren-9-yl)pyrrolidine hydrochloride], for which the IC50 at hBChE (setting [4]) was 1.8 ± 0.06 µM. Further, the inhibition at 10 µM stood at 27.8 ± 1.74% on GluN1/GluN2A receptors and 32.4 ± 2.99% at GluN1/GluN2B receptors. Further, in series [1], the 50% inhibitory concentration (IC50) at 24 h was 413 ± 15 µM.

Regarding `CC12CC3CC(C)(C1)CC(N)(C3)C2` [Memantine, memantine, reference compound], on GluN1/GluN2A receptors, the “h 40 mV GluN1/GluN2A (Hill coefficient)” value stood at 1.16 ± 0.05 and the “h −60 mV GluN1/GluN2A (Hill coefficient)” value amounted to 1.04 ± 0.06. At GluN1/GluN2B receptors, the “h 40 mV GluN1/GluN2B (Hill coefficient)” value was 0.84 ± 0.04 and the “h −60 mV GluN1/GluN2B (Hill coefficient)” value was determined as 1.04 ± 0.03.

For the compound `O/N=C/c1cc[n+](COC[n+]2ccc(/C=N/O)cc2)cc1` [Obidoxime, reference compound], in the series “in vitro”, the apparent permeability (Papp) came to 14.3 ± 0.52 ×10⁻⁶ cm/s. In addition, in the series with hCMEC/D3 cell monolayer (setting [3]), the “CNS (+/−)” value is “CNS −”.

The compound `CC(C)NCC(O)COc1cccc2ccccc12` (stereo not drawn) [Propranolol, reference compound] registered an apparent permeability (Papp) in the series “in vitro” of 23.1 ± 2.06 ×10⁻⁶ cm/s. Moreover, in the series on hCMEC/D3 cell monolayer (setting [3]), the “CNS (+/−)” value is “CNS +”.

In “in vitro”, `CCN(C)C(=O)Oc1cccc([C@H](C)N(C)C)c1` [Rivastigmine, reference compound] returned a Papp of 28.6 ± 4.64 ×10⁻⁶ cm/s. The “CNS (+/−)” value with hCMEC/D3 cell monolayer is recorded as “CNS +”.
